Data set [1] has as its system Pseudomonas aeruginosa. Description: Antibacterial activity against Pseudomonas aeruginosa ATCC 27853 assessed as growth inhibition at 50 mg/mL after 24 hr by agar well diffusion method. In kind it is functional. As to conditions: for zone of inhibition at 50000 µg/mL: ATCC 27853, 24 h, read-out: IZ. (A growth-free zone around the sample is the usual read-out of agar diffusion tests.)

Data set [2] relates to Aspergillus flavus. Description: Antifungal activity against Aspergillus flavus assessed as growth inhibition after 72 hr by serial broth dilution method. In kind it is functional. Background: In broth dilution the organism is exposed to a series of concentrations in liquid medium.
Data set [3] is described as follows: Metal chelating activity of the compound assessed as ferrous ion complex formation at 0.5 to 2 mg/mL after 10 min by spectrophotometric analysis relative to EDTA.
Data set [4] concerns Staphylococcus aureus. Description: Antibacterial activity against Staphylococcus aureus ATCC 25923 assessed as growth inhibition after 24 hr by serial broth dilution method.
Data set [5] concerns Candida albicans. Description: Antifungal activity against Candida albicans MTCC227 assessed as growth inhibition at 50 mg/mL after 72 hr by agar well diffusion method. As to conditions: for zone of inhibition at 50000 µg/mL: MTCC227, 72 h, read-out: IZ.
Data set [6] has as its system Escherichia coli. Description: Antibacterial activity against Escherichia coli ATCC 25922 assessed as growth inhibition at 50 mg/mL after 24 hr by agar well diffusion method. As to conditions: for zone of inhibition at 50000 µg/mL: ATCC 25922, 24 h, read-out: IZ.
The subject of data set [7] is Pseudomonas aeruginosa. The experiment in a line: Antibacterial activity against Pseudomonas aeruginosa ATCC 27853 assessed as growth inhibition after 24 hr by serial broth dilution method. In kind it is functional.
The test system of data set [8] is Candida albicans. The experiment in a line: Antifungal activity against Candida albicans MTCC227 assessed as growth inhibition after 72 hr by serial broth dilution method.
The subject of data set [9] is Chrysosporium keratinophilum. Description: Antifungal activity against Chrysosporium keratinophilum assessed as growth inhibition at 50 mg/mL after 72 hr by agar well diffusion method. In kind it is functional. As to conditions: for zone of inhibition at 50000 µg/mL: read-out: IZ.
The test system of data set [10] is Chrysosporium keratinophilum. The experiment in a line: Antifungal activity against Chrysosporium keratinophilum assessed as growth inhibition after 72 hr by serial broth dilution method. In kind it is functional.
Data set [11] deals with Radical scavenging activity. The experiment in a line: Antioxidant activity assessed as DPPH free radical scavenging activity at 100 ug/mL after 10 min UV-Vis spectrophotometric analysis relative to control. In kind it is functional.
The test system of data set [12] is Aspergillus flavus. Description: Antifungal activity against Aspergillus flavus assessed as growth inhibition at 50 mg/mL after 72 hr by agar well diffusion method. It counts as functional. Conditions: for zone of inhibition at 50000 µg/mL: read-out: IZ.
The subject of data set [13] is Escherichia coli. Description: Antibacterial activity against Escherichia coli ATCC 25922 assessed as growth inhibition after 24 hr by serial broth dilution method.
Data set [14] concerns Staphylococcus aureus. The experiment in a line: Antibacterial activity against Staphylococcus aureus ATCC 25923 assessed as growth inhibition at 50 mg/mL after 24 hr by agar well diffusion method. As to conditions: for zone of inhibition at 50000 µg/mL: ATCC 25923, 24 h, read-out: IZ.
The subject of data set [15] is Candida albicans. Description: Antifungal activity against Candida albicans NCPF 3179 assessed as growth inhibition at 0.5 to 1 mg/mL after 72 hr by agar well diffusion method. In kind it is functional.
Data set [16] has as its system Chrysosporium keratinophilum. Description: Antifungal activity against Chrysosporium keratinophilum assessed as growth inhibition at 0.5 to 1 mg/mL after 72 hr by agar well diffusion method. In kind it is functional.
Data set [17] has as its system Aspergillus flavus. The experiment in a line: Antifungal activity against Aspergillus flavus assessed as growth inhibition at 0.5 to 1 mg/mL after 72 hr by agar well diffusion method. In kind it is functional.
Data set [18] can be described thus: Metal chelating activity of the compound assessed as ferrous ion complex formation at 0.5 to 2 mg/mL after 10 min by spectrophotometric analysis.
Data set [19] relates to Pseudomonas aeruginosa. Description: Antibacterial activity against Pseudomonas aeruginosa ATCC 27853 assessed as growth inhibition at 0.5 to 1 mg/mL after 24 hr by agar well diffusion method. In kind it is functional.
Data set [20] has as its system Staphylococcus aureus. Description: Antibacterial activity against Staphylococcus aureus ATCC 25923 assessed as growth inhibition at 0.5 to 1 mg/mL after 24 hr by agar well diffusion method.
In data set [21] the test system is Escherichia coli. The experiment in a line: Antibacterial activity against Escherichia coli ATCC 25922 assessed as growth inhibition at 0.5 to 1 mg/mL after 24 hr by agar well diffusion method.

The structures appear in SMILES notation. Converted amounts (≈) assume the structure as drawn. The source made the active and inactive calls. The calls are words filed in the database; no cut-off is given here.

By MIC is commonly meant the lowest concentration that inhibits growth of the organism. As for `Cc1ccc(C(CC(=O)c2cc3ccccc3oc2=O)Nc2ccc(C(=O)O)cc2)cc1` (stereo not given), the zone of inhibition at 50000 µg/mL in the data set with Pseudomonas aeruginosa [1] was 3 mm; with Candida albicans [5], 1 mm; in the data set on Escherichia coli [6], 1 mm; with Aspergillus flavus [12] it was 1 mm; with Staphylococcus aureus [14], 3 mm. For the same molecule, the minimum inhibitory concentration (MIC) was 450 µg/mL (≈ 1050 µM) in the data set on Aspergillus flavus [2]; 500 µg/mL (≈ 1170 µM) in the data set on Staphylococcus aureus [4] (ATCC 25923, 24 h); 500 µg/mL (≈ 1170 µM) in the data set with Pseudomonas aeruginosa [7] (ATCC 27853, 24 h); 500 µg/mL (≈ 1170 µM) in the data set with Candida albicans [8] (MTCC227, 72 h); 500 µg/mL (≈ 1170 µM) with Escherichia coli [13] (ATCC 25922, 24 h). For the same molecule, the Activity result in [3] is “Active”; in [11] it was 52.5%. In addition, in data set [9], the “growth inhibition (GI)” value is “inactive”. In data set [10], the MIC result is “inactive”.
Take `OC(Cn1cncn1)(Cn1cncn1)c1ccc(F)cc1F` [FLUCONAZOLE]: the “inhibition zone (IZ)” value is recorded as 20 mm in the data set on Candida albicans [15], 14 mm in data set [16] and 10 mm with Aspergillus flavus [17]. Moreover, the MIC was found to be 40 µg/mL (≈ 131 µM) in the data set with Candida albicans [15] (Candida albicans, NCPF 3179, 72 h); 40 µg/mL (≈ 131 µM) in data set [16] (Chrysosporium keratinophilum, 72 h); 40 µg/mL (≈ 131 µM) in the data set with Aspergillus flavus [17] (Aspergillus flavus, 72 h).
For `O=C(O)c1ccc(NC(CC(=O)c2cc3ccccc3o2)c2ccc(F)cc2)cc1` (stereo not given), the zone of inhibition at 50000 µg/mL was 9 mm with Pseudomonas aeruginosa [1]; 18 mm with Candida albicans [5]; 5 mm in the data set with Escherichia coli [6]; 12 mm in [9]; 9 mm with Aspergillus flavus [12]; 6 mm in the data set on Staphylococcus aureus [14]. The MIC in the data set with Aspergillus flavus [2] came to 130 µg/mL (≈ 322 µM); in the data set on Staphylococcus aureus [4] (ATCC 25923, 24 h), 140 µg/mL (≈ 347 µM); in the data set with Pseudomonas aeruginosa [7] (ATCC 27853, 24 h), 140 µg/mL (≈ 347 µM); in the data set on Candida albicans [8] (MTCC227, 72 h), 100 µg/mL (≈ 248 µM); in [10], 150 µg/mL (≈ 372 µM); with Escherichia coli [13] (ATCC 25922, 24 h), 300 µg/mL (≈ 744 µM). The Activity result was “Active” in data set [3] and 36.2% in data set [11].
For `O=C(O)c1ccc(NC(CC(=O)c2cc3ccccc3oc2=O)c2ccccc2)cc1` (stereo not given), the Activity in data set [18] was 64.3%; in data set [11], 64.6%. The zone of inhibition at 50000 µg/mL in the data set with Pseudomonas aeruginosa [1] was 12 mm; in the data set with Candida albicans [5], 17 mm; in the data set on Escherichia coli [6], 10 mm; in data set [9], 13 mm; in the data set with Aspergillus flavus [12], 11 mm; with Staphylococcus aureus [14] it was 11 mm. Further, the MIC amounted to 250 µg/mL (≈ 605 µM) with Aspergillus flavus [2]; 100 µg/mL (≈ 242 µM) with Staphylococcus aureus [4] (ATCC 25923, 24 h); 150 µg/mL (≈ 363 µM) in the data set on Pseudomonas aeruginosa [7] (ATCC 27853, 24 h); 150 µg/mL (≈ 363 µM) in the data set on Candida albicans [8] (MTCC227, 72 h); 200 µg/mL (≈ 484 µM) in data set [10]; 50 µg/mL (≈ 121 µM) with Escherichia coli [13] (ATCC 25922, 24 h).
Turning to `CN[C@@H]1[C@H](O[C@H]2[C@H](O[C@H]3[C@H](O)[C@@H](O)[C@H](N=C(N)N)[C@@H](O)[C@@H]3N=C(N)N)O[C@@H](C)[C@]2(O)C=O)O[C@@H](CO)[C@H](O)[C@H]1O` [STREPTOMYCIN], the “inhibition zone (IZ)” value in the data set with Pseudomonas aeruginosa [19] was determined as 13 mm; with Staphylococcus aureus [20], 12 mm; in the data set on Escherichia coli [21], 14 mm. Further, the minimum inhibitory concentration (MIC) was 30 µg/mL (≈ 51.6 µM) in the data set with Pseudomonas aeruginosa [19] (Pseudomonas aeruginosa, ATCC 27853, 24 h); 30 µg/mL (≈ 51.6 µM) with Staphylococcus aureus [20] (Staphylococcus aureus, ATCC 25923, 24 h); 30 µg/mL (≈ 51.6 µM) with Escherichia coli [21] (Escherichia coli, ATCC 25922, 24 h).
Take `O=C(O)c1ccc(NC(CC(=O)c2cc3ccccc3o2)c2ccccc2)cc1` (stereo not given): the Activity in data set [18] is 69.6%; in [11] it was 52.2%. For the same molecule, the zone of inhibition at 50000 µg/mL was determined as 3 mm with Pseudomonas aeruginosa [1]; 2 mm in the data set on Candida albicans [5]; 3 mm in the data set on Escherichia coli [6]; 2 mm in [9]; 3 mm in the data set with Aspergillus flavus [12]; 3 mm with Staphylococcus aureus [14]. Also, the MIC was 500 µg/mL (≈ 1300 µM) in the data set with Aspergillus flavus [2]; 450 µg/mL (≈ 1170 µM) in the data set with Staphylococcus aureus [4] (ATCC 25923, 24 h); 500 µg/mL (≈ 1300 µM) in the data set with Pseudomonas aeruginosa [7] (ATCC 27853, 24 h); 400 µg/mL (≈ 1040 µM) in the data set with Candida albicans [8] (MTCC227, 72 h); 500 µg/mL (≈ 1300 µM) in data set [10]; 500 µg/mL (≈ 1300 µM) in the data set with Escherichia coli [13] (ATCC 25922, 24 h).
As to `CN(C)c1ccc(C(CC(=O)c2cc3ccccc3o2)Nc2ccc(C(=O)O)cc2)cc1` (stereo not given), the zone of inhibition at 50000 µg/mL was 10 mm in the data set with Pseudomonas aeruginosa [1]; 19 mm in the data set on Candida albicans [5]; 13 mm with Escherichia coli [6]; 12 mm in [9]; 10 mm in the data set with Aspergillus flavus [12]; 11 mm in the data set on Staphylococcus aureus [14]. Besides, the MIC stood at 40 µg/mL (≈ 93.4 µM) in the data set with Aspergillus flavus [2]; 60 µg/mL (≈ 140 µM) in the data set with Staphylococcus aureus [4] (ATCC 25923, 24 h); 40 µg/mL (≈ 93.4 µM) with Pseudomonas aeruginosa [7] (ATCC 27853, 24 h); 50 µg/mL (≈ 117 µM) in the data set on Candida albicans [8] (MTCC227, 72 h); 40 µg/mL (≈ 93.4 µM) in data set [10]; 50 µg/mL (≈ 117 µM) in the data set on Escherichia coli [13] (ATCC 25922, 24 h). In addition, the Activity result in [3] was “Active”; in [11], 67.2%.
As to `COc1ccc(C(CC(=O)c2cc3ccccc3oc2=O)Nc2ccc(C(=O)O)cc2)cc1` (stereo not given), the “growth inhibition (GI)” value (in the data set with Pseudomonas aeruginosa [1]; with Candida albicans [5]; with Escherichia coli [6]; in [9]; in the data set on Aspergillus flavus [12]; with Staphylococcus aureus [14]) was “inactive” throughout. Moreover, the MIC result (in the data set with Aspergillus flavus [2]; in the data set on Staphylococcus aureus [4]; in the data set on Pseudomonas aeruginosa [7]; in the data set with Candida albicans [8]; in [10]; in the data set with Escherichia coli [13]) was “inactive” each time. The Activity in data set [11] is 18.1%.

(Values after ChEMBL document CHEMBL3045073, “Synthesis of -amino carbonyl derivatives of coumarin and benzofuran and evaluation of their biological activity” (Med Chem Res, 2013).)
